Experiment in all cases: NCI-60 cell line screen, 48 h
Test [1] deals with A498.
In test [2] the test system is A549.
Test [3] concerns EKVX.
In test [4] the test system is HCC 2998.
Test [5] relates to HCT-15.
Test [6] concerns HOP-62.
In test [7] the test system is K562.
For test [8], the system named is M14.
Test [9] relates to NCI/ADR-RES.
The test system of test [10] is OVCAR-3.
In test [11] the test system is OVCAR-4.
For test [12], the system named is OVCAR-8.
In test [13] the test system is PC-3.
The subject of test [14] is RXF 393.
For test [15], the system named is SK-MEL-5.
Test [16] concerns SR.
For test [17], the system named is TK-10.
For test [18], the system named is U-251.
Test [19] relates to UACC-257.
In test [20] the test system is UO-31.

The structures appear in SMILES notation.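 1) Cells in 96-well plates. 2) Compound, 48 h, 5 concentrations. 3) Linear interpolation between surrounding doses. 4) Unreached endpoint = highest concentration. GI50 is the concentration that inhibits growth by half.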 The source made the active and inactive calls. Cut-off read from the data, not from the text of the source: active = GI50 up to about 1.1 µM and inactive = higher. Some results are limits rather than exact numbers.

For `CCN1CCN=c2c3cc(OC)ccc3n3cnc4ccc1c2c43`, the GI50 is 0.225 µM (active) in test [1]; 0.192 µM (active) in test [2]; 0.231 µM (active) in test [3]; 0.244 µM (active) in [4]; 0.177 µM in [5]; 0.193 µM (active) in test [6]. For the same compound, the GI50 is 0.0555 µM (active) in [7]; 0.245 µM (active) in test [8]; 0.145 µM (active) in test [9]; 0.226 µM (active) in test [10]; 0.371 µM (active) in [11]; 0.0863 µM (active) in test [12]. Further, the GI50 was 0.207 µM (active) in test [13]; 0.33 µM (active) in test [14]; 0.27 µM (active) in [15]; 0.0283 µM (active) in test [16]; 0.411 µM (active) in [17]; 0.192 µM (active) in test [18]. Moreover, the GI50 was 0.553 µM (active) in test [19] and 0.147 µM (active) in [20].
With `COc1c(C)c(OC)c2c(c1O)[C@@H]1[C@@H]3Cc4c(OC)c(C)c(OC)c(O)c4[C@H](CNC(=O)c4ccc5ccccc5n4)N3[C@@H](C#N)[C@H](C2)N1C`, the GI50 in test [1] is 0.000629 µM (active); in test [2], 0.00263 µM (active); in [3], 0.000232 µM (active); in test [4], 0.00014 µM (active); in test [5] it was 0.0101 µM; in [6], 0.00112 µM (active). For the same compound, the GI50 is 0.000537 µM (active) in [7]; 0.000659 µM (active) in test [8]; 0.0101 µM (active) in [9]; 0.000235 µM (active) in test [10]; 0.00217 µM (active) in [11]; 0.00181 µM (active) in [12]. For the same compound, the GI50 in test [13] is 0.00234 µM (active); in test [14] it was 0.00136 µM (active); in [15] it was 0.000495 µM (active); in [16], 0.000105 µM (active); in [17] it was 0.000444 µM (active); in [18], 0.000632 µM (active). The values for the GI50 in test [19] and in test [20] were 0.00206 µM (active) and 0.00227 µM (active), respectively.
Regarding `CCOC(=O)CSc1nc(N)c2c(-c3ccccc3)c3c(nc2n1)CCCC3`, the GI50 is > 100 µM (inactive) in test [1]; > 100 µM (inactive) in test [2]; > 100 µM (inactive) in [3]; > 100 µM (inactive) in test [4]; greater than 100 µM in test [5]; > 100 µM (inactive) in [6]. Moreover, the GI50 in test [7], in [8], in [9], in test [10], in test [11] and in [12] was > 100 µM (inactive) each time. Besides, the GI50 in test [13], in test [14], in [15], in test [16], in [17] and in [18] was > 100 µM (inactive) each time. For the same compound, the values for the GI50 in test [19] and in test [20] were > 100 µM (inactive) and 25.1 µM (inactive), respectively.
As for `O=C1N[C@@H]([C@H]2CC[C@H](Cl)CN2)C(=O)N[C@H]1[C@H]1CC[C@H](Cl)CN1`, the GI50 in [1] is 2.63 µM (inactive); in test [2], 0.248 µM (active); in test [3] it was 3.32 µM (inactive); in [4], 0.923 µM (active); in test [5] it was 1.14 µM; in test [6] it was 0.28 µM (active). Further, the GI50 in test [7] was 1.39 µM (inactive); in [8], 0.158 µM (active); in [9], 0.902 µM (active); in test [10], 1.8 µM (inactive); in [11], 2.77 µM (inactive); in test [12], 0.853 µM (active). The GI50 in test [13] was 0.804 µM (active); in test [14], 2.04 µM (inactive); in test [15], 1.21 µM (inactive); in test [16] it was 0.1 µM (active); in test [17], 4.42 µM (inactive); in test [18], 0.406 µM (active). For the same compound, the GI50 in test [19] is 2.26 µM (inactive); in [20] it was 1.04 µM (active).
Take `CN1CCCN2CCN(C)CCN(CC1)CC2`: the GI50 in [1] is > 100 µM (inactive); in test [2], > 100 µM (inactive); in [3] it was > 100 µM (inactive); in [4] it was > 100 µM (inactive); in test [5], greater than 100 µM; in [6], > 100 µM (inactive). In addition, the GI50 in test [7], in test [8], in [9], in test [10], in test [11] and in test [12] was > 100 µM (inactive) each time. Moreover, the GI50 in test [13], in test [14], in [15], in test [16], in [17] and in test [18] was > 100 µM (inactive) in each case. For the same compound, the GI50 in test [19] and in [20] was > 100 µM (inactive) in each case.
In the case of `C/C(Cl)=N/OC(=O)Nc1ccc(S(N)(=O)=O)c(C)c1`, the GI50 is 18.2 µM (inactive) in test [1]; 17.5 µM (inactive) in test [2]; 5.75 µM (inactive) in test [3]; 18.4 µM (inactive) in [4]; 2.02 µM in test [5]; 19.9 µM (inactive) in [6]. Besides, the GI50 in test [7] is 1.34 µM (inactive); in test [8], 9.14 µM (inactive); in [9] it was 14.1 µM (inactive); in test [10], 4.46 µM (inactive); in [11] it was 15.5 µM (inactive); in test [12], 24.7 µM (inactive). Also, the GI50 is 18.3 µM (inactive) in test [13]; 16.9 µM (inactive) in test [14]; 12.9 µM (inactive) in test [15]; 1.86 µM (inactive) in test [16]; 5.58 µM (inactive) in test [17]; 18.5 µM (inactive) in [18]. Further, the GI50 in test [19] is 14.7 µM (inactive); in test [20], 14.9 µM (inactive).
For the compound `O=c1c2ccc(Cl)cc2oc2c(CNc3ccc(S(=O)(=O)Nc4nccs4)cc3)cccc12`, the GI50 in [1] was > 100 µM (inactive); in test [2], > 100 µM (inactive); in [3], > 100 µM (inactive); in test [4] it was > 100 µM (inactive); in test [5] it was greater than 100 µM; in test [6], > 100 µM (inactive). The GI50 in [7], in test [8], in [9], in test [10], in [11] and in test [12] was > 100 µM (inactive) throughout. For the same compound, the GI50 in [13], in test [14], in [15], in test [16], in [17] and in test [18] was > 100 µM (inactive) each time. The GI50 in test [19] and in test [20] was > 100 µM (inactive) in each case.
